The test system of the experiment is Jurkat NF-kB reporter, TCR-induced, luciferase luminescence. Briefly: T-cell NF-kB luciferase reporter inhibition – Jurkat cells, luminescence, dose response (AID 489035).

Activity calls are given as the source filed them. No rule for the calls is given here. Starred links: 1 amine or outer side, 2 acyl side, 3 side chain; linkers in the order of their positions; H or OH if unused. Non-standard residues stand in square brackets, D forms with d. Residues, ends and D or L forms follow the SMILES beside them. X2 = CCC[C@@H](N[*:1])[C@H](C)C(=O)O[C@H](C(=O)[*:2])[C@@H](C)CC; X1 = CC(N[*:1])C(=O)C(C)(C)C(=O)[*:2]; NMeY = CN[C@@H](Cc1ccc(O)cc1)C(=O)O; NMeL = CN[C@@H](CC(C)C)C(=O)O; NMeV = CN[C@H](C(=O)O)C(C)C; NMeA = CN[C@@H](C)C(=O)O

In the case of `O=S1(=O)Nc2c(ccc3cccnc23)-c2ccccc21`, the IC50 – broadly, the point on the concentration scale where inhibition reaches its midpoint – was 2.17 µM.

`Oc1ccc(Nc2nc3ccccc3nc2Nc2ccc(O)cc2)cc1`: the IC50 was 2.09 µM.

Consider `O=C1CC(c2cc(F)ccc2F)c2cc3c(cc2N1)CCC3` (centres undefined), for which the IC50 was > 80 µM (inactive).

`COc1cc(NCCCCCCCN)c2ncccc2c1`: the IC50 was 21 µM (inactive).

As for `CCCCCCCCCCn1ccc(=N)cc1`, the IC50 is 3.84 µM.

With `CCOCCCNC(=O)c1ccc2c(c1)N=C(CC)c1cc(Br)ccc1S2`, the IC50 was 5.67 µM.

In the case of `CCCCCN1C=CC(=C2C(=O)c3ccccc3C2=O)C=C1`, the IC50 was 0.37 µM.

On to `CC(C)(C)c1nnc(N/N=C/c2ccccc2O)n(N)c1=O`, for which the IC50 is 12.2 µM.

As for `Cc1ccc(O)c(NC(=O)c2cc(-c3ccccc3)on2)c1`, the IC50 is > 80 µM (inactive).

As to `CCCCCC(=O)N[C@@H](c1ccccc1)[C@@H](O)C(=O)O[C@H]1C[C@@]2(O)[C@@H](OC(=O)c3ccccc3)C3[C@](C)(C(=O)[C@H](OC(C)=O)C(=C1C)C2(C)C)[C@@H](O)C[C@H]1OC[C@@]31OC(C)=O` (some centres undefined), the IC50 is 32.3 µM (inactive).

With `COC(=O)c1c(NC(=O)c2ccc([N+](=O)[O-])o2)sc2c1CCN(C(C)C)C2`, the IC50 was 6.76 µM.

As to `COc1ccc(C(=O)NNC(=O)c2ccccn2)cc1`, the IC50 was 1.93 µM.

`O=C(Nc1ccc(F)cc1)c1ccc(CN2CCc3ccccc3C2)cc1`: the IC50 is > 80 µM (inactive).

Regarding `CC(=O)N1c2ccc(S(=O)(=O)N3CCC(C(=O)Nc4cccc(C)n4)CC3)cc2CC1C` (centres undefined), the IC50 is > 80 µM (inactive).

On to `CCOC(=O)c1ccccc1NC(=O)Cn1c(-c2nonc2N)nc2ccccc21`, for which the IC50 is > 80 µM (inactive).

Consider `CC1=C(C(=O)OCc2ccc3c(c2)OCO3)C(c2ccc(Cl)cc2)NC(=O)N1` (centres undefined), for which the IC50 is 0.63 µM.

Turning to `COc1ccc2c(c1)C(=O)N1[C@H]3c4cc(Br)ccc4OC[C@@H]3[C@H](c3ccccc3)[C@]1(C)C(=O)N2`, the IC50 was > 80 µM (inactive).

`CCCCS(=O)(=O)/C=C\C=C/S(=O)(=O)CCCC`: the IC50 is 0.72 µM.

In the case of `COc1ccccc1C(=O)N(CCC1CCCN1C)c1nc2ccccc2s1` (centres undefined), the IC50 is 45.7 µM (inactive).

`O=C(Nc1ccccc1Cl)/C(Cl)=C(\Cl)S(=O)c1ccccc1` (centres undefined): the IC50 was 1.77 µM.

Consider `Cc1cc(C)cc(C(=O)N2CC(=O)Nc3ccccc32)c1`, for which the IC50 was 15.7 µM.

For `O=C(COc1ccccc1-c1ccccc1)N/N=C/c1cccc2ccccc12`, the IC50 is less than 0.16 µM.

`C[C@]12CC[C@H]3[C@@H](CC[C@]4(O)C[C@@H](O)CC[C@]34C=O)[C@@]1(O)CC[C@@H]2C1=CC(=O)OC1`: the IC50 was 68.9 µM (inactive).

In the case of `CC(C)c1oc(=O)cc2c1[C@@H](O)[C@H]1OC(=O)[C@@]3(C)CC[C@@H](O)[C@@]2(C)C13` (some centres undefined), the IC50 was 2.54 µM.

`CC(=O)Nc1ccc(S(=O)(=O)N2CCSc3ccccc32)cc1`: the IC50 is > 80 µM (inactive).

As to `Cc1cc(C)cc(NC(=O)c2ccc([N+](=O)[O-])o2)c1`, the IC50 was 0.95 µM.

On to `CC(C)CCOc1cccc(OCC(=O)Nc2ccncc2)c1`, for which the IC50 was > 80 µM (inactive).

As for `O=C(NCCOc1ccccc1)c1cc([N+](=O)[O-])ccc1N1CCOCC1`, the IC50 is > 80 µM (inactive).

For `Cc1cnc(NC(=O)c2ccc3c(c2)OCCO3)s1`, the IC50 was 1 µM.

For `NC(=O)CC(NC(=O)c1ccc(Br)cc1)c1ccc(N2CCCCCC2)c([N+](=O)[O-])c1` (centres undefined), the IC50 was 2.54 µM.

As for `Cc1cccc(N2CCN(C(=O)c3ccc4[nH]c(C)c(C)c4c3)CC2)c1C`, the IC50 was > 80 µM (inactive).

Turning to `CC(C)Oc1ccccc1C1CC(=O)Nc2cc3c(cc21)OCCO3` (centres undefined), the IC50 was > 80 µM (inactive).

Regarding `CN(C)c1ccc(-[n+]2c(-c3ccccc3)cc(-c3ccccc3)cc2-c2ccccc2)cc1`, the IC50 was 7.96 µM.

For `CCN(CC)c1ccc(/C=C/c2ccc3ccc(OC)cc3[n+]2CC)cc1`, the IC50 was 51.9 µM (inactive).

As for `CCOc1ccccc1C1CC(=O)Nc2cc(C)c(C)cc21` (centres undefined), the IC50 is > 80 µM (inactive).

As for `Cc1ccc(N/C(N)=N/c2nc(CSc3nnc(C)s3)cc(=O)[nH]2)c(C)c1`, the IC50 is 42.1 µM (inactive).

Regarding `Cn1ncnc2c(=O)n(C)c(=O)nc1-2`, the IC50 was 0.51 µM.

Turning to `Cc1sc2ncnc(NC3CCN(Cc4ccccc4)CC3)c2c1C`, the IC50 is > 80 µM (inactive).

In the case of `COc1ccc(C(=O)c2ccc(N(C)C)cc2)c(OC)c1`, the IC50 is > 80 µM (inactive).

On to `CCCOCCOC(=O)c1[nH]c2c(c1C)C(=O)CC(c1cc(OC)ccc1OC)C2` (centres undefined), for which the IC50 was > 80 µM (inactive).

In the case of `O=C(c1ccccc1-c1ccccc1)N1CCN(c2ccccn2)CC1`, the IC50 is > 80 µM (inactive).

For the molecule `CCCC1=Nc2cc(C(=O)NCCCOCC)ccc2Sc2ccccc21`, the IC50 is 24 µM (inactive).

Regarding `CC(C)(C)c1csc(Sc2ccc([N+](=O)[O-])cn2)n1`, the IC50 is 3.24 µM.

In the case of `C/C=C(\C)C(=O)N[C@@H](c1ccccc1)[C@@H](O)C(=O)O[C@H]1C[C@@]2(O)[C@@H](OC(=O)c3ccccc3)C3[C@](C)(C(=O)[C@H](OC(C)=O)C(=C1C)C2(C)C)[C@@H](O)C[C@H]1OC[C@@]31OC(C)=O` (some centres undefined), the IC50 was less than 0.16 µM.

`COc1ccc(OC)c(COC(=O)c2cc([N+](=O)[O-])ccc2N2CCOCC2)c1`: the IC50 is 71.8 µM (inactive).

With `COc1cc(NS(=O)(=O)c2ccc(OC)c(C)c2C)c(OC)cc1Cl`, the IC50 is > 80 µM (inactive).

Regarding `COc1ccccc1-c1nnc2n1N=C(c1ccc(O)c(O)c1)CS2`, the IC50 was 7.43 µM.

As for `CCOC(=O)c1ccccc1NS(=O)(=O)c1ccc(OCC)cc1`, the IC50 was 78.3 µM (inactive).

With `COC(=O)c1[nH]c2ccc(Br)cc2c1NC(=O)CN1CCN(C2CCCCC2)CC1`, the IC50 is 4.56 µM.

For the molecule `CC[C@]1(O)CC2CN(CCc3c([nH]c4ccccc34)[C@@](C(=O)OC)(c3cc4c(cc3OC)N(C=O)[C@H]3[C@@](O)(C(=O)OC)[C@H](OC(C)=O)[C@]5(CC)C=CCN6CC[C@]43[C@@H]65)C2)C1` (some centres undefined), the IC50 was > 80 µM (inactive).

Consider `O=C(Nc1ccc(Oc2cccnc2)nc1)c1ccc(C(F)(F)F)cc1`, for which the IC50 is > 80 µM (inactive).

As to `CCCC(=O)Nc1nc2ccc(S(=O)(=O)N3CCCCC3)cc2s1`, the IC50 is > 80 µM (inactive).

With `Oc1ccccc1N=Nc1nc(-c2ccccc2)c(-c2ccccc2)[nH]1`, the IC50 is 0.82 µM.

As to `Cc1ccc(C)c(CSc2nc3[nH]ncc3c(=O)[nH]2)c1`, the IC50 was 39.2 µM (inactive).

For the molecule `CN(Cc1ccccc1)C1=CC(=[N+]2CCCC2)CC(C)(C)C1`, the IC50 is 55.1 µM (inactive).

As for `CC(=O)O[C@H]1C(=O)[C@@]2(C)[C@H]([C@H](OC(=O)c3ccccc3)[C@]3(O)C[C@H](OC(=O)[C@H](O)[C@@H](NC(=O)c4ccccc4)c4ccccc4)C(C)=C1C3(C)C)[C@]1(OC(C)=O)CO[C@@H]1C[C@@H]2O`, the IC50 is 11 µM.

As to `Cc1ccc(C(=O)Nc2ncc(Cc3ccc(SC(F)F)cc3)s2)cc1`, the IC50 was > 80 µM (inactive).

Turning to `COc1cc(NS(C)(=O)=O)ccc1Nc1c2ccccc2nc2ccccc12`, the IC50 was 9.5 µM.

Take `N#C/C(=C\c1ccc(OCc2ccc(C(=O)O)cc2)cc1)C(=O)N1CCOCC1`: the IC50 was 1.55 µM.

Take `C/C=C(\C)C(=O)N[C@@H](c1ccccc1)[C@@H](O)C(=O)O[C@H]1C[C@@]2(O)[C@@H](OC(=O)c3ccccc3)C3[C@](C)(C(=O)[C@H](OC(C)=O)C(=C1C)C2(C)C)[C@H](O)C[C@H]1OC[C@@]31OC(C)=O` (some centres undefined): the IC50 was less than 0.16 µM.

As for `CCOc1ccc2c(c1)OC(c1ccc(OC)cc1)(C(F)(F)F)NC2=O` (centres undefined), the IC50 is > 80 µM (inactive).

Consider `CCOC(=O)CC1CCCCN1C(=O)c1cc(COc2cccc3cnccc23)on1` (centres undefined), for which the IC50 is 6.39 µM.

In the case of `CCN(CC)c1ccc(-c2nn3c(-c4ccccc4OC)nnc3s2)cc1`, the IC50 was 20.4 µM (inactive).

Consider `CCCCc1ccc(NC(=O)C(=O)NCCN2CCN(Cc3ccc([N+](=O)[O-])cc3)CC2)cc1`, for which the IC50 was > 80 µM (inactive).

In the case of `CCOC(=O)c1ccc2nc(Nc3nc4ccc(F)cc4s3)sc2c1`, the IC50 was 75.4 µM (inactive).

`COc1ccc(OC)c(Nc2cc(-c3ccccc3)nc(N)n2)c1`: the IC50 was 26.9 µM (inactive).

As for `CCOc1ccccc1NC(=O)Cn1nnc(C(=O)NCc2ccco2)c1N`, the IC50 was > 80 µM (inactive).

Turning to `Cn1nc([N+](=O)[O-])nc1Sc1nnc(-c2ccccc2)o1`, the IC50 was 7.97 µM.

Turning to `O=S(=O)(Nc1cccc2ncccc12)c1cccs1`, the IC50 is 0.89 µM.

In the case of `COC(=O)c1ccccc1NC1=C/C(=N\S(=O)(=O)c2cccs2)c2ccccc2C1=O`, the IC50 was 2.91 µM.

As to `CCOc1ccccc1C1CC(=O)Nc2cc3c(cc21)OCO3` (centres undefined), the IC50 was 67.1 µM (inactive).

On to `CCOC(=O)c1[nH]c(C)c(C(=O)Nc2cc(OC)ccc2OC)c1C`, for which the IC50 is > 80 µM (inactive).

Turning to `CC(=O)O[C@H]1C(=O)[C@@]2(C)C([C@H](OC(=O)c3ccccc3)[C@]3(O)C[C@H](OC(=O)[C@H](O)[C@@H](NC(=O)c4ccccc4)c4ccccc4)C(C)=C1C3(C)C)[C@]1(OC(C)=O)CO[C@@H]1C[C@H]2O` (some centres undefined), the IC50 was less than 0.16 µM.

On to `O=C(N/N=C/c1c(O)ccc2ccccc12)c1ccc(Br)o1`, for which the IC50 was 60.7 µM (inactive).

For `CCC[C@H]1NC(=O)[C@H](C)N(C)C(=O)C(C)(C)C(=O)C(C)NC(=O)[C@H](Cc2ccc(OC)cc2)N(C)C(=O)[C@H](C(C)C)N(C)C(=O)CNC(=O)[C@H](CC(C)C)N(C)C(=O)CNC(=O)[C@H]([C@@H](C)CC)OC(=O)[C@H]1C` (some centres undefined) (cyclo(G[NMeL]G[NMeV][NMeY](Me)[X1][NMeA][X2])), the IC50 was > 80 µM (inactive).

Take `O=C(Nc1cccc(C(F)(F)F)c1)c1sc(Cl)nc1C(F)(F)F`: the IC50 is 0.59 µM.

For `C[C@@H]1O[C@@H](O[C@H]2C[C@@H](O)[C@]3(CO)[C@@H]4C(CC[C@]3(O)C2)[C@@]2(O)CC[C@H](C3COC(=O)C3)[C@@]2(C)C[C@H]4O)[C@H](O)[C@H](O)[C@H]1O` (some centres undefined), the IC50 was 23.3 µM (inactive).

`CC#CC(=O)N1CCC(n2nccc2NC(=O)c2ccc3c(c2)OCO3)CC1`: the IC50 is > 80 µM (inactive).

`CCCC(=O)NC(c1ccccc1Cl)c1ccc2cccnc2c1O` (centres undefined): the IC50 was 2.81 µM.

Source of the values: PubChem BioAssay AID489035 (Sanford-Burnham Center for Chemical Genomics, 2010).
